# How the values were obtained:
# Assay type in all cases: cell-based
# human P2X2/3 receptors = biological target: T1, human P2X2/3 receptors (Homo sapiens, UniProt P56373+Q9UBL9); assay: Intracellular calcium measurement, antagonist activity at human P2X2/3 receptors (hP2X23 1321N1), Fluo8; conditions: for IC50: column 4); 1321N1 cells, human P2X2/3, Fluo8, agonist ATP at EC50; read-out: 4) hP2X2/3 IC50 [nM] (1321N1); for hP2X23/hP2X3* Selectivity (1321N1): ratio of column 4) hP2X2/3 to column 3) hP2X3, 1321N1
# T1 construct: expressed in transfected cells; host or cells: human astrocytoma 1321N1 (1312N1 [sic])
# T1 sequence (P56373 1-397): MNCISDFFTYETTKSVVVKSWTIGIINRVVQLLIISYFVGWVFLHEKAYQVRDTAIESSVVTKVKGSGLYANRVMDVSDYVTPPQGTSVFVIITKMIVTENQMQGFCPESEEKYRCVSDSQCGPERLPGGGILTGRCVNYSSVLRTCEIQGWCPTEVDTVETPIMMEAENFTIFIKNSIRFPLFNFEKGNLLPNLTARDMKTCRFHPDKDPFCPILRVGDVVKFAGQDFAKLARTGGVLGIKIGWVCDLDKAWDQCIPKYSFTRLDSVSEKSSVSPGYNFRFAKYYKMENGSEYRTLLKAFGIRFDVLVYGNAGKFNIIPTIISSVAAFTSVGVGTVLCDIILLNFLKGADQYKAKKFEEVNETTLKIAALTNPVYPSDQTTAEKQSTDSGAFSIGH
# T1 sequence (Q9UBL9 1-471): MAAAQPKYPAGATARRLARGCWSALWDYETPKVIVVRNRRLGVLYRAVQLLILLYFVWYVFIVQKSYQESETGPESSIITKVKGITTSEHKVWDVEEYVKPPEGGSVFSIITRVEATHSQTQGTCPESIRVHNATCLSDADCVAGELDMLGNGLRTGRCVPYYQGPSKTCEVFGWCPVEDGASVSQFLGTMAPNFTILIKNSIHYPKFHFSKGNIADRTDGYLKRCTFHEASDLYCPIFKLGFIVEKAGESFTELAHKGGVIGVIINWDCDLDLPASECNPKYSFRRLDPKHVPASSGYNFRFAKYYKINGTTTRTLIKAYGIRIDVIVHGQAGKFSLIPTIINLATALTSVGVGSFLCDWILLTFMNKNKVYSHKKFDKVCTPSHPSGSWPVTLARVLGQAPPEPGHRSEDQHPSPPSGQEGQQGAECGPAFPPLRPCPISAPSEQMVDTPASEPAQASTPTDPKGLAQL
# Method in brief: (§1)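 Inhibition of ATP-triggered Ca2+ transients is measured in 1321N1 cells expressing P2X3 homotrimers or P2X2/3 heterotrimers.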
# human P2X3 receptor [1] = biological target: T2, human P2X3 receptor (Homo sapiens, UniProt P56373); assay: Intracellular calcium measurement, antagonist activity at human P2X3 receptors (hP2X3 1321N1), Fluo8; set-up: expressed in transfected cells; host or cells: human astrocytoma 1321N1 (1312N1 [sic]); conditions: column 3); 1321N1 cells, human P2X3, Fluo8, agonist ATP at EC50
# T2 sequence (P56373 1-397): T1 sequence (P56373 1-397)
# Method in brief: as §1
# human P2X3 receptor [2] = biological target: T2, human P2X3 receptor; assay: Intracellular calcium measurement to assess antagonist activity at human P2X3 receptors (hP2X3 CHO), photina luminescence; set-up: expressed in transfected cells; host or cells: Chinese hamster ovary (CHO) cells; conditions: column 2), CHO cells, agonist α,β-methylene-ATP at EC50
# Method in brief: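 CHO cells stably expressing human P2X3 and mitochondrial photina, plated the day before at 30 °C, then loaded 3 h at 37 °C in 2 mM Ca-tyrode buffer with 5 μg/ml coelenterazine. Agonist-evoked calcium luminescence read immediately; inhibition seen as signal decrease.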
IC50 (human P2X2/3 receptors) [nM],hP2X23/hP2X3* Selectivity (1321N1) (human P2X2/3 receptors),IC50 (human P2X3 receptor [1]) [nM],IC50 (human P2X3 receptor [2]) [nM],SMILES
7700,114,68,88,"CC(C)N1Cc2c(n(CC(=O)Nc3ccc(F)cn3)c3cc(NCCOCc4ccccc4)nn3c2=O)C1=O [Example 176, 2-[2-{[2-(benzyloxy)ethyl]amino}-5,8-dioxo-6-(propan-2-yl)-5,6,7,8-tetrahydro-4H-pyrazolo[1,5-a]pyrrolo[3,4-d]pyrimidin-4-yl]-N-(5-fluoropyridin-2-yl)acetamide]"
11500,397,29,30,COC[C@H](C)N1Cc2c(n(CC(=O)Nc3ccc(F)cn3)c3cc(N(C)C)nn3c2=O)C1=O [Example 177]
2200,917,2,14,COC[C@H](C)N1Cc2c(n(CC(=O)Nc3ccc(F)cn3)c3cc(NC4CCCC4)nn3c2=O)C1=O [Example 178]
> 32000,>188,170,175,"CC(C)N1Cc2c(n(CC(=O)Nc3ccc(F)cn3)c3cc(N4CCOCC4)nn3c2=O)C1=O [Example 180, N-(5-fluoropyridin-2-yl)-2-[2-(morpholin-4-yl)-5,8-dioxo-6-(propan-2-yl)-5,6,7,8-tetrahydro-4H-pyrazolo[1,5-a]pyrrolo[3,4-d]pyrimidin-4-yl]acetamide]"
5550,173,32,63,"CC(C)N1Cc2c(n(CC(=O)Nc3ccc(F)cn3)c3cc(N4CCN(C)CC4)nn3c2=O)C1=O [Example 181, N-(5-fluoropyridin-2-yl)-2-[2-(4-methylpiperazin-1-yl)-5,8-dioxo-6-(propan-2-yl)-5,6,7,8-tetrahydro-4H-pyrazolo[1,5-a]pyrrolo[3,4-d]pyrimidin-4-yl]acetamide]"
> 32000,>194,165,109,"CC(C)N1Cc2c(n(CC(=O)Nc3ccc(F)cn3)c3cc(C(=O)N(C)C)nn3c2=O)C1=O [Example 182, 4-{2-[(5-fluoropyridin-2-yl)amino]-2-oxoethyl}-N,N-dimethyl-5,8-dioxo-6-(propan-2-yl)-5,6,7,8-tetrahydro-4H-pyrazolo[1,5-a]pyrrolo[3,4-d]pyrimidine-2-carboxamide]"
2300,118,20,23,CC(C)N1Cc2c(n(CC(=O)Nc3ccc(F)cn3)c3cc(C(=O)N4CCCCC4)nn3c2=O)C1=O [Example 183]
3200,70,46,38,CC(C)N1Cc2c(n(CC(=O)Nc3ccc(F)cn3)c3cc(C(=O)NCC(F)F)nn3c2=O)C1=O [Example 184]
3350,84,40,22,CC(C)N1Cc2c(n(CC(=O)Nc3ccc(F)cn3)c3cc(C(=O)NC4CCCC4)nn3c2=O)C1=O [Example 185]
> 32000,>17,1850,124,CC(C)N1Cc2c(n(CC(=O)Nc3ccc(F)cn3)c3cc(C(=O)NC(C)(C)C)nn3c2=O)C1=O [Example 186]
2300,112,21,21,CC(C)N1Cc2c(n(CC(=O)Nc3ccc(F)cn3)c3cc(C(=O)NCC4CC4)nn3c2=O)C1=O [Example 187]
> 32000,>267,120,91,CC(C)N1Cc2c(n(CC(=O)Nc3ccc(F)cn3)c3cc(C(=O)N4CCN(C)CC4)nn3c2=O)C1=O [Example 188]
> 23500,>291,81,35,COC[C@H](C)N1Cc2c(n(CC(=O)Nc3ccc(F)cn3)c3cc(C(=O)N(C)C)nn3c2=O)C1=O [Example 189]
5900,361,16,10,COC[C@H](C)N1Cc2c(n(CC(=O)Nc3ccc(F)cn3)c3cc(C(=O)NCC4CC4)nn3c2=O)C1=O [Example 190]
> 32000,>1199,27,29,COC[C@H](C)N1Cc2c(n(CC(=O)Nc3ccc(F)cn3)c3cc(C(=O)N4CCOCC4)nn3c2=O)C1=O [Example 191]
> 19600,>530,37,56,COC[C@H](C)N1Cc2c(n(CC(=O)Nc3ccc(F)cn3)c3cc(C(=O)NC4CC4)nn3c2=O)C1=O [Example 192]
> 22500,>180,125,155,CNC(=O)c1cc2n(CC(=O)Nc3ccc(F)cn3)c3c(c(=O)n2n1)CN([C@@H](C)COC)C3=O [Example 193]
3200,368,9,18,COC[C@H](C)N1Cc2c(n(CC(=O)Nc3ccc(F)cn3)c3cc(C(=O)N4CCC4)nn3c2=O)C1=O [Example 194]
8900,399,22,20,COC[C@H](C)N1Cc2c(n(CC(=O)Nc3ccc(F)cn3)c3cc(C(=O)N(C)CC4CC4)nn3c2=O)C1=O [Example 195]
4150,277,15,10,COC[C@H](C)N1Cc2c(n(CC(=O)Nc3ccc(F)cn3)c3cc(C(=O)N(C)C4CC4)nn3c2=O)C1=O [Example 196]
9800,291,34,19,COC[C@H](C)N1Cc2c(n(CC(=O)Nc3ccc(F)cn3)c3cc(C(=O)NCC(F)F)nn3c2=O)C1=O [Example 197]
9300,581,16,35,COC[C@H](C)N1Cc2c(n(CC(=O)Nc3ccc(F)cn3)c3cc(C(=O)N4CCCCC4)nn3c2=O)C1=O [Example 198]
7000,1321,5,11,CC(C)N1Cc2c(n(CC(=O)Nc3ccc(F)cn3)c3cc(C(=O)N(C)CC4CC4)nn3c2=O)C1=O [Example 199]
3950,105,38,44,CC(C)N1Cc2c(n(CC(=O)Nc3ccc(F)cn3)c3cc(C(=O)Nc4ccccc4F)nn3c2=O)C1=O [Example 200]
8920,158,56,23,"CC(C)N1Cc2c(n(CC(=O)Nc3ccc(F)cn3)c3cc(C(=O)N4CCC4)nn3c2=O)C1=O [Example 223, 2-[2-(azetidin-1-ylcarbonyl)-5,8-dioxo-6-(propan-2-yl)-5,6,7,8-tetrahydro-4H-pyrazolo[1,5-a]pyrrolo[3,4-d]pyrimidin-4-yl]-N-(5-fluoropyridin-2-yl)acetamide]"
> 32000,>481,67,37,"CC(C)N1Cc2c(n(CC(=O)Nc3ccc(F)cn3)c3cc(C(=O)N4CCOCC4)nn3c2=O)C1=O [Example 225, N-(5-fluoropyridin-2-yl)-2-[2-(morpholin-4-ylcarbonyl)-5,8-dioxo-6-(propan-2-yl)-5,6,7,8-tetrahydro-4H-pyrazolo[1,5-a]pyrrolo[3,4-d]pyrimidin-4-yl]acetamide]"
